The results in this text go back to PMC5071857, “A unique peptide deformylase platform to rationally design and challenge novel active compounds” (Scientific Reports, 2016).

For assay [1], the target named is T1, EcPDF (Escherichia coli, UniProt P0A6K3).
T1 construct: made in house
The assay is described as follows: PDF inhibition, formate dehydrogenase-coupled spectrophotometric assay (EcPDF). Format: biochemical.

In assay [2] the test system is E. coli AG100. The assay can be described thus: MIC by microdilution, E. coli AG100. To be noted: 18 h at 37 °C, average of three assays; for MIC: Escherichia coli, AG100, without PMBN; for MIC AG100: with PMBN at 1/5 of its MIC. Format: cell-based. In a few lines: (§1)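 Broth microdilution in Mueller-Hinton II, inoculum 2 × 10^5 cfu per well, two-fold serial dilutions, 37 °C; kanamycin-supplemented growth for acrAB-/tolC- derivatives. Tested alone or equimolar combinations, with or without PMBN at 51.2 mg/L. MIC in μg/mL, mean of three independent assays.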

For assay [3], the system named is E. coli AG100A (AcrAB- derivative). The assay is described as follows: MIC by microdilution, E. coli AG100A. It counts as cell-based. To be noted: for MIC: Escherichia coli, 18 h, read-out: MIC AG100A; for MIC AG100A: with PMBN at 1/5 of its MIC, 18 h at 37 °C, average of three assays. In outline: as §1
The subject of assay [4] is B. subtilis 168. The assay can be described thus: MIC, B. subtilis 168. Format: cell-based. The conditions noted are these: Bacillus subtilis. The text has this:
Two E. coli strains, one B. subtilis strain, one S. aureus strain, one E. faecalis strain, one S. agalactiae strain and three Enterobacter aerogenes strains previously described were used. Briefly, AG100 was an E. coli wild type strain and AG100A its acrAB^- derivative. EA289 was a Kan^s derivative of an E. aerogenes multi-drug resistant (MDR) clinical isolate overexpressing AcrAB-TolC efflux pumps, and EA294 and EA298 its acrAB^- and tolC^- derivatives respectively. Strains were routinely grown at 37 °C on Luria-Bertani (LB) agar or in Mueller-Hinton II broth (MH), supplemented with kanamycine (50 μg.mL^−1) for AG100A, EA294 and EA298.
MIC values of antibiotics were determined by the microdilution method in liquid MH media in microplates in the absence or presence of chemosensitizers/modulators (e.g. PMBN, PAβN), as previously described. Permeabilization, blocking of efflux pumps, and isolates with different levels of porin or efflux expression were used to assess the involvement of the membrane barrier in antibiotic activity.
Susceptibilities were determined in 96-wells microplates with an inoculum of 2 × 10^5 cfu in 200 μL of MH broth containing two-fold serial dilutions of each antibiotics or compounds. Molecules were tested alone or in combination with other molecules in equimolar ratio. MICs were realized in the absence and in the presence of a membrane permeabilizer, the polymyxine B nonapeptide (PMBN) used at 51.2 mg/L (1/5 or 1/10 of its direct MIC previously determined). Actinonin and ciprofloxacin were used as internal antibiotic reference. […] Each test was systematically performed in triplicate. The average of three independent assays is presented in μg/mL in the respective tables.

The test system of assay [5] is S. aureus SA113. The assay can be described thus: MIC, S. aureus SA113. Format: cell-based. The conditions noted are these: Staphylococcus aureus. In outline:
as §1

The test system of assay [6] is E. faecalis EFA 103.214. The assay can be described thus: MIC, E. faecalis EFA 103.214. It counts as cell-based. The conditions noted are these: Enterococcus faecalis, EFA103.214, read-out: MIC E. faecalis EFA 103.214. In outline:
as §1

Assay [7] deals with T2, SaPDF (Streptococcus agalactiae serotype III, UniProt Q8E378, S2A).
T2 construct: the recombinant protein contains all residues of the 204 amino acids mature protein; made in house; host or cells: E. coli Rosetta 2(DE3)pLysS
T2 sequence (Q8E378 whole entry S2A): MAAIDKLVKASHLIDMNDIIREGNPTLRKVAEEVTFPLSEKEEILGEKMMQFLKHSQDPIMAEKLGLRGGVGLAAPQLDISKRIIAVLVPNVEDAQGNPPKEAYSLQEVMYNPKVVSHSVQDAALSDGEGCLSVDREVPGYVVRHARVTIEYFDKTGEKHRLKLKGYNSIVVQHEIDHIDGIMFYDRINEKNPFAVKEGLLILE
The assay is described as follows: biochemical. In a few lines: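 FDH-coupled NADH formation followed at 340 nm, 37 °C, in 50 mM HEPES-NaOH pH7.5 with 12 mM NAD+, 1 mM NiCl2; enzyme 40 nM SaPDF, 10 nM EcPDF or 100 nM AtPDF1B, substrate Fo-Met-Ala-Ser 1–6 mM. For KI, enzyme started the reaction without pre-incubation; 1/KI taken as slope of v0/vi versus compound concentration.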

Assay [8] addresses T3, AtPDF1B (Arabidopsis thaliana, UniProt Q9FUZ2).
T3 construct: made in house
T3 sequence (Q9FUZ2 83-273): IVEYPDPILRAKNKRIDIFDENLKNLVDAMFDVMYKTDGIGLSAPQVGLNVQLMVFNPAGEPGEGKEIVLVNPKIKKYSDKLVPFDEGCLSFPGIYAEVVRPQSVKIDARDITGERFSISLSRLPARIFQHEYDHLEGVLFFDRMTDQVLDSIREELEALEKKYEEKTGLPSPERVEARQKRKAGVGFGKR
The assay is described as follows: PDF inhibition, formate dehydrogenase-coupled spectrophotometric assay (AtPDF1B). It counts as biochemical. In a few lines:
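AtPDF1B activity was followed by coupling deformylation to formate dehydrogenase, which converts NAD to NADH, read at 340 nm at 37 °C. The 200 μL mix held 50 mM HEPES-NaOH pH7.5, 12 mM NAD^+, 4.5 U/mL FDH, 1 mM NiCl2 and 100 nM AtPDF1B prediluted with 0.1 mg/mL BSA. Reactions began with 1–6 mM Fo-Met-Ala-Ser. 1/KI*app was the slope of v0/vi versus compound concentration.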

The test system of assay [9] is E. aerogenes Ea289, MDR strain. The assay can be described thus: MIC by microdilution, E. aerogenes Ea289. It counts as cell-based, Enterobacter aerogenes. In outline: as §1
Assay [10] deals with E. aerogenes Ea294, Ea289 derivative AcrAB-. The assay is described as follows: MIC by microdilution, E. aerogenes Ea294. Format: cell-based, Enterobacter aerogenes. In outline:
as §1

In assay [11] the test system is E. aerogenes Ea298, Ea289 derivative tolC-. The assay can be described thus: MIC by microdilution, E. aerogenes Ea298. The conditions noted are these: Klebsiella aerogenes, 18 h, read-out: MIC Ea298. It counts as cell-based, Enterobacter aerogenes. In outline:
as §1

In assay [12] the target is T2, SaPDF. The assay is described as follows: biochemical. The conditions noted are these: SaPDF KI*app, PDFI pre-incubated with enzyme 10 min at 37 °C, started by 2 mM Fo-Met-Ala-Ser; 40 nM SaPDF.
Assay [13] deals with T3, AtPDF1B. The assay can be described thus: PDF inhibition, formate dehydrogenase-coupled spectrophotometric assay (AtPDF1B). It counts as biochemical. To be noted: no pre-incubation, assay initiated by addition of enzyme; 100 nM AtPDF1B; 37 °C.
The mark [14] stands for this setting: 10 nM EcPDF, 2 mM Fo-Met-Ala-Ser, 10 min pre-incubation at 37 °C, read-out: IC50 EcPDF.
Where [15] appears, read: enhancement potency (slow tight-binding).
The mark [16] stands for this setting: +PMBN at 1/5 of its MIC, average of three assays.

Like-named read-outs stand apart in the source and are kept apart here.

T1 sequence (P0A6K3 whole entry): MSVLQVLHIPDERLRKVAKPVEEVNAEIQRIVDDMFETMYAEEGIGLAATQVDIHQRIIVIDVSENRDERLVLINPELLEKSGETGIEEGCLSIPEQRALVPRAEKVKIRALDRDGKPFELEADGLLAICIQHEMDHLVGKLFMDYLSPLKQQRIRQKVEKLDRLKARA

For `CCCCC(CC(=O)NO)c1nc(C(N)=O)co1` (centres unmarked) [AT007], the IC50 in assay [1] (setting [14]) stood at 0.74 µM. Further, the MIC in assay [2], in assay [3], in assay [4], in assay [5] and in [6] was above 64 mg/L throughout. For the same compound, the “MIC AG100” value in assay [2] was above 64 mg/L. The “MIC AG100A” value in assay [3] was above 64 mg/L.

Take `CCCC[C@H](CC(=O)NO)c1nc(C(=O)N[C@H](C(=O)OC)C(C)C)co1` [AT009]: the IC50 in [1] (setting [14]) was determined as 0.33 µM. In addition, the MIC in assay [2], in assay [3], in [4], in assay [5] and in assay [6] was above 64 mg/L in each case. For the same compound, the “MIC AG100” value in assay [2] was above 64 mg/L. Moreover, the “MIC AG100A” value in assay [3] is above 64 mg/L.

Turning to `CCCC[C@H](CC(=O)NO)c1nc(C(=O)N[C@H](C(N)=O)C(C)C)co1` [AT010], in [1] (setting [14]), the IC50 is 0.42 µM. The MIC in assay [2], in [3], in assay [4], in assay [5] and in assay [6] was above 64 mg/L throughout. Also, in assay [2], the “MIC AG100” value was above 64 mg/L. In [3], the “MIC AG100A” value is above 64 mg/L.

As to `O=C(C[C@@H](CC1CCCC1)c1nc(Cc2ccc3c(c2)OCO3)no1)NO` [AT020], the IC50 in [7] worked out at 0.012 ± 0.003 µM; in assay [1], 0.007 ± 0.002 µM; in assay [8] (100 nM AtPDF1B, 2 mM Fo-Met-Ala-Ser, 10 min pre-incubation at 37 °C), 0.119 ± 0.01 µM. The Ki in assay [7] (SaPDF KI, no pre-incubation, assay initiated by addition of enzyme, 40 nM SaPDF, 37 °C) was 0.063 ± 0.003 µM; in assay [1] (EcPDF KI*app, PDFI pre-incubated with enzyme 10 min at 37 °C, started by 2 mM Fo-Met-Ala-Ser, 10 nM EcPDF), 0.0019 ± 0.0002 µM; in [1] (EcPDF KI, no pre-incubation, assay initiated by addition of enzyme, 10 nM EcPDF, 37 °C) it was 0.08 ± 0.003 µM; in [8] (PDFI pre-incubated with enzyme 10 min at 37 °C, started by 2 mM Fo-Met-Ala-Ser, 100 nM AtPDF1B, read-out: AtPDF1B KI*app), 0.123 ± 0.005 µM; in assay [12] it was 0.0085 ± 0.003 µM; in assay [13], 0.238 ± 0.03 µM. Also, in assay [1] (setting [15]), the “EcPDF KI/KI*app” value is 42. Further, the “AtPDF1B KI/KI*app” value in assay [8] (setting [15]) was 2. For the same compound, the MIC in [2] is above 64 mg/L; in assay [3] it was 16 mg/L; in [9] (Klebsiella aerogenes, 18 h, read-out: MIC Ea289), above 128 mg/L; in [10] (Klebsiella aerogenes, 18 h, read-out: MIC Ea294), 128 mg/L; in [11] it was 128 mg/L. Besides, the “MIC AG100” value in assay [2] amounted to 8 mg/L. Besides, the “MIC AG100A” value in [3] came out at 4 mg/L. The “MIC Ea289” value in [9] (setting [16]) was 32 mg/L. Moreover, the “MIC Ea294” value in assay [10] (setting [16]) came to 8 mg/L.
